Values joined by “and” are separate entries in the source; they are usually repeats but may differ in a detail not shown here. Identical values can stand only once. Inconclusive results and toxic doses are left out. Rule for the calls: active = survival T/C of 150% or more; inactive = T/C below 125% in these data.
Test system: CD2F1 mice, L1210 leukemia ip, survival T/C
Test: NCI In Vivo Anticancer Drug Screen. Data for tumor model L1210 Leukemia (intraperitoneal) in CD2F1 (CDF1) mice
Settings: higher = longer survival
Summary of the method: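 Vehicle-treated tumor-bearing mice served as controls (C) for compound-treated mice (T). Reported figure is T divided by C.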

[1] = endpoint: mean survival time, dose: 100.0 mg/kg/injection, schedule: Q04DX003 (ip), vehicle: saline
[2] = endpoint: mean survival time, dose: 200.0 mg/kg/injection, schedule: Q04DX003 (ip), vehicle: saline
[3] = endpoint: mean survival time, dose: 400.0 mg/kg/injection, schedule: Q04DX003 (ip), vehicle: saline
[4] = endpoint: mean survival time, dose: 100.0 mg/kg/injection, schedule: Q04DX003 (ip), vehicle: saline with Tween-80
[5] = endpoint: mean survival time, dose: 100.0 mg/kg/injection, schedule: Q04DX002 (ip), vehicle: saline with Tween-80
[6] = endpoint: mean survival time, dose: 200.0 mg/kg/injection, schedule: Q04DX002 (ip), vehicle: saline with Tween-80
[7] = endpoint: mean survival time, dose: 400.0 mg/kg/injection, schedule: Q04DX002 (ip), vehicle: saline with Tween-80
[8] = endpoint: mean survival time, dose: 200.0 mg/kg/injection, schedule: Q04DX003 (ip), vehicle: saline with Tween-80
[9] = endpoint: mean survival time, dose: 400.0 mg/kg/injection, schedule: Q04DX003 (ip), vehicle: saline with Tween-80
[10] = endpoint: mean survival time, dose: 100.0 mg/kg/injection, schedule: Q01DX009 (ip), vehicle: saline with Tween-80
[11] = endpoint: mean survival time, dose: 200.0 mg/kg/injection, schedule: Q01DX009 (ip), vehicle: saline with Tween-80
[12] = endpoint: mean survival time, dose: 400.0 mg/kg/injection, schedule: Q01DX009 (ip), vehicle: saline with Tween-80
[13] = endpoint: mean survival time, dose: 50.0 mg/kg/injection, schedule: Q01DX009 (ip), vehicle: saline with Tween-80

Measured: T/C

CCOC1=C(C)C(=O)C1C (centres undefined)
inactive: [1] 100 % of control | [2] 94 % of control | [3] 100 % of control

C1CC2OC2C1 (centres undefined)
inactive: endpoint: mean survival time, dose: 100.0 mg/kg/injection, schedule: Q01DX009 (ip), vehicle: acetone 95 % of control | endpoint: mean survival time, dose: 200.0 mg/kg/injection, schedule: Q01DX009 (ip), vehicle: acetone 97 % of control | endpoint: mean survival time, dose: 400.0 mg/kg/injection, schedule: Q01DX009 (ip), vehicle: acetone 95 % of control

COc1cccc(CC(C)N)c1OC (centres undefined)
inactive: endpoint: mean survival time, dose: 25.0 mg/kg/injection, schedule: Q01DX009 (ip), vehicle: saline 98 % of control | endpoint: mean survival time, dose: 50.0 mg/kg/injection, schedule: Q01DX009 (ip), vehicle: saline 95 % of control | endpoint: mean survival time, dose: 100.0 mg/kg/injection, schedule: Q01DX009 (ip), vehicle: saline 93 % of control | [4] 95 % of control

COc1ccccc1NC(=O)Oc1ccc(SC)c(C)c1
inactive: [5] 100 % of control | [6] 95 % of control | [7] 95 % of control

CNC(=O)Oc1cccc(NC(=O)OCc2ccccc2)c1
inactive: [4] 99 % of control | [8] 96 % of control | [9] 92 % of control

CC1(C)CCC2(C)CCC3(C)C(=CCC4C5(C)CCC(O)C(C)(C)C5CCC43C)C2C1 (centres undefined)
inactive: [4] 98 % of control | [8] 90 % of control | [9] 91 % of control

O=C1c2ccccc2C(=O)c2c1ccc(O)c2O
inactive: [10] 97 % of control | [4] 102 % of control | [11] 97 % of control | [8] 100 % of control | [12] 90 % of control | [9] 100 % of control

O=C(O)C1C2CCC1C(O)C2 (centres undefined)
inactive: [10] 94 % of control | [11] 94 % of control | [12] 88 % of control

NC(=O)c1ncn(C2OC(CO)C(O)C2O)n1 (centres undefined)
inactive: [10] 124 % of control | [1] 100 % of control | [11] 110 % of control | [2] 115 % of control | [12] 93 % of control | [3] 110 % of control

CCOC(=O)Nc1cc(N)c2nc(CN(C)c3ccccc3)cnc2n1
inactive: endpoint: mean survival time, dose: 100.0 mg/kg/injection, schedule: Q01DX001 (ip), vehicle: other 91 % of control | endpoint: mean survival time, dose: 200.0 mg/kg/injection, schedule: Q01DX001 (ip), vehicle: other 94 % of control | endpoint: mean survival time, dose: 400.0 mg/kg/injection, schedule: Q01DX001 (ip), vehicle: other 91 % of control

O=[N+]([O-])O.[Cu+2].[NH-]C1CCCCC1[NH-].[NH-]C1CCCCC1[NH-] (centres undefined)
inactive: endpoint: mean survival time, dose: 12.5 mg/kg/injection, schedule: Q04DX002 (ip), vehicle: saline with Tween-80 94 % of control

COc1cc(/C=C/c2ccccn2)cc(OC)c1OC
inactive: [4] 101 % of control | [8] 91 % of control

O=C(CC(O)(C(F)(F)F)C(F)(F)F)c1ccc(F)cc1
inactive: endpoint: mean survival time, dose: 100.0 mg/kg/injection, schedule: Q01DX009 (ip), vehicle: other 98 % of control | endpoint: mean survival time, dose: 200.0 mg/kg/injection, schedule: Q01DX009 (ip), vehicle: other 98 % of control | endpoint: mean survival time, dose: 400.0 mg/kg/injection, schedule: Q01DX009 (ip), vehicle: other 98 % of control

CCCNC(=O)C1C2CCC(CC2)C1C(=O)NCCC (centres undefined)
inactive: [4] 98 % of control | [8] 98 % of control | [9] 95 % of control

CCC(c1ccc(O)c(C2CCCCC2)c1)C(CC)c1ccc(OC(=O)c2ccccc2)c(C2CCCCC2)c1 (centres undefined)
inactive: endpoint: mean survival time, dose: 75.0 mg/kg/injection, schedule: Q01DX001 (ip), vehicle: saline 109 % of control | endpoint: mean survival time, dose: 150.0 mg/kg/injection, schedule: Q01DX001 (ip), vehicle: saline 100 % of control | endpoint: mean survival time, dose: 300.0 mg/kg/injection, schedule: Q01DX001 (ip), vehicle: saline 106 % of control

[C-]#[O+].[C-]#[O+].[C-]#[O+].[C-]#[O+].[CH3][Sn]([CH3])[CH3].[Co]
inactive: endpoint: mean survival time, dose: 0.02 mg/kg/injection, schedule: Q01DX009 (ip), vehicle: saline 100 % of control | endpoint: mean survival time, dose: 0.04 mg/kg/injection, schedule: Q01DX009 (ip), vehicle: saline 102 % of control | endpoint: mean survival time, dose: 0.09 mg/kg/injection, schedule: Q01DX009 (ip), vehicle: saline 100 % of control and 105 % of control | endpoint: mean survival time, dose: 0.39 mg/kg/injection, schedule: Q01DX009 (ip), vehicle: saline 86 % of control | endpoint: mean survival time, dose: 0.78 mg/kg/injection, schedule: Q01DX009 (ip), vehicle: saline 107 % of control

NCCSSCC(N)C(=O)O (centres undefined)
inactive: [4] 106 % of control | [8] 103 % of control | [9] 94 % of control

CC1Oc2cc3c(-c4c(O)cc(O)c5c(O)c6c(cc45)OC(C)C(C)C6=O)c(O)cc(O)c3c(O)c2C(=O)C1C (centres undefined)
inactive: endpoint: median survival time, dose: 5.0 mg/kg/injection, schedule: Q01DX009 (ip), vehicle: suspension in saline 87 % of control | endpoint: median survival time, dose: 10.0 mg/kg/injection, schedule: Q01DX009 (ip), vehicle: suspension in saline 91 % of control

N#Cc1cn(C2OC(CO)C(O)C2O)c2ncn3ncnc3c12 (centres undefined)
inactive: endpoint: mean survival time, dose: 3.13 mg/kg/injection, schedule: Q01DX005 (ip), vehicle: water 102 % of control | endpoint: mean survival time, dose: 6.25 mg/kg/injection, schedule: Q01DX005 (ip), vehicle: water 102 % of control | endpoint: mean survival time, dose: 12.5 mg/kg/injection, schedule: Q01DX005 (ip), vehicle: distilled water + Tween-80 122 % of control | endpoint: mean survival time, dose: 12.5 mg/kg/injection, schedule: Q01DX005 (ip), vehicle: water 112 % of control | endpoint: mean survival time, dose: 25.0 mg/kg/injection, schedule: Q01DX005 (ip), vehicle: distilled water + Tween-80 112 % of control | endpoint: mean survival time, dose: 25.0 mg/kg/injection, schedule: Q01DX005 (ip), vehicle: water 120 % of control | endpoint: mean survival time, dose: 50.0 mg/kg/injection, schedule: Q01DX005 (ip), vehicle: distilled water + Tween-80 116 % of control | endpoint: mean survival time, dose: 100.0 mg/kg/injection, schedule: Q01DX005 (ip), vehicle: distilled water + Tween-80 106 % of control

CNP1(=O)OC(c2ccccc2)=CCN1CCCl (centres undefined)
inactive: endpoint: median survival time, dose: 31.25 mg/kg/injection, schedule: Q01DX001 (ip), vehicle: distilled water + Tween-80 102 % of control | endpoint: median survival time, dose: 62.5 mg/kg/injection, schedule: Q01DX001 (ip), vehicle: distilled water + Tween-80 106 % of control | endpoint: median survival time, dose: 125.0 mg/kg/injection, schedule: Q01DX001 (ip), vehicle: distilled water + Tween-80 96 % of control | endpoint: median survival time, dose: 250.0 mg/kg/injection, schedule: Q01DX001 (ip), vehicle: distilled water + Tween-80 96 % of control

Nc1cc(=O)[nH]c(O)c1C(=O)O
inactive: [13] 104 % of control | [10] 96 % of control

CCCC(=O)Nc1ccn(C2OC(COC(=O)CCC)C(OC(=O)CCC)C2OC(=O)CCC)c(=O)n1 (centres undefined)
inactive: endpoint: mean survival time, dose: 100.0 mg/kg/injection, schedule: Q01DX009 (ip), vehicle: Klucel (hydroxypropylcellulose) (HPC) 112 % of control | endpoint: mean survival time, dose: 200.0 mg/kg/injection, schedule: Q01DX009 (ip), vehicle: Klucel (hydroxypropylcellulose) (HPC) 114 % of control

CCCCCCCCC/C(=N\Nc1ccc([N+](=O)[O-])cc1[N+](=O)[O-])c1ccccc1
inactive: [10] 97 % of control | [11] 87 % of control | [12] 94 % of control

C=C1CC23CC[C@H]4[C@@](C)(CCC[C@@]4(C)C(=O)O)[C@@H]2CC[C@]1(OC1OC(COC(C)=O)C(OC(C)=O)C(OC(C)=O)C1OC1OC(COC(C)=O)C(OC(C)=O)C(OC(C)=O)C1OC(C)=O)C3 (some centres undefined)
inactive: [5] 93 % of control | [6] 89 % of control | [7] 96 % of control

O=C(O)C1C2c3cccc4cccc(c34)C12 (centres undefined)
inactive: [13] 101 % of control | [10] 97 % of control | [4] 101 % of control | [11] 109 % of control | [8] 101 % of control

CC=C(C(=O)OCC)C(=O)OCC
inactive: endpoint: mean survival time, dose: 100.0 mg/kg/injection, schedule: Q01DX001 (ip), vehicle: saline 95 % of control | endpoint: mean survival time, dose: 200.0 mg/kg/injection, schedule: Q01DX001 (ip), vehicle: saline 98 % of control | endpoint: mean survival time, dose: 400.0 mg/kg/injection, schedule: Q01DX001 (ip), vehicle: saline 107 % of control

From PubChem BioAssay AID256 (DTP/NCI, 2004)
